Experimental findings from patent publication US8436023B2, “Cyclohexyl-azetidinyl antagonists of CCR2” (Janssen Pharmaceutica N.V., priority 2010, dated 2013) are described below.

This test deals with T1, CCR2 (Homo sapiens, UniProt P41597).
T1 construct: host or cells: THP-1 human monocytic cells
T1 sequence (P41597 1-360 isoform P41597-2): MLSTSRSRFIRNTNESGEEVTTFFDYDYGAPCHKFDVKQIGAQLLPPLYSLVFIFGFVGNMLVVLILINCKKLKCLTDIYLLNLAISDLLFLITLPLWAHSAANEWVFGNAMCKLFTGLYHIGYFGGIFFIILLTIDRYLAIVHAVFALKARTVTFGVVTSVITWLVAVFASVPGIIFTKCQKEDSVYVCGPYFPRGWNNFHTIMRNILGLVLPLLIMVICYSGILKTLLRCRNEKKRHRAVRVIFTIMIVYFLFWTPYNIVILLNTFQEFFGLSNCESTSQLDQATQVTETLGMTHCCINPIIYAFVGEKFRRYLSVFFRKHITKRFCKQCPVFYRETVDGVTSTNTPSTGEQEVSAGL
The experiment in a line: MCP-1 Receptor Binding Assay in THP-1 Cells. Particulars: 0.5 nM 125I labeled MCP-1, 2 hours at 30° C., less polar isomer tested where stated, read-out: Inhibition of MCP-1 Binding IC50, CCR2 Binding. In short, it runs like this:
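Whole THP-1 cells incubated 2 h at 30 °C with 0.5 nM 125I-MCP-1 and varying concentrations of test compound; bound radioactivity counted after filter harvesting. Where no IC50 obtained, % inhibition given at 25 μM.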

For `C=CCn1nc(NCC(=O)NC2CN(C3CCC(C(=O)OCC)CC3)C2)c2cc(C(F)(F)F)ccc21` (centres unmarked) [Example 94, 4-{3-[2-(1-Allyl-5-trifluoromethyl-1H-indazol-3-ylamino)-acetylamino]-azetidin-1-yl}-cyclohexanecarboxylic acid ethyl ester], the IC50 (in general, the concentration that gives 50% inhibition) was determined as 53 nM. Take `C=CCn1nc(NCC(=O)NC2CN(C3CCC(C4CCCCC4)CC3)C2)c2cc(C(F)(F)F)ccc21` (centres unmarked) [Example 95, 2-(1-Allyl-5-trifluoromethyl-1H-indazol-3-ylamino)-N-(1-bicyclohexyl-4-yl-azetidin-3-yl)-acetamide]: the half-maximal inhibitory concentration (IC50) stood at 3600 nM.

In the case of `COc1cccc(C2(O)CCC(N3CC(NC(=O)CNc4nn(Cc5ccccc5)c5ccc(C(F)(F)F)cc45)C3)CC2)n1` (centres unmarked) [Example 96, 2-(1-Benzyl-5-trifluoromethyl-1H-indazol-3-ylamino)-N-{1-[4-hydroxy-4-(6-methoxy-pyridin-2-yl)-cyclohexyl]-azetidin-3-yl}-acetamide], the IC50 is 270 nM. With `CCOC(=O)C1CCC(N2CC(NC(=O)CNc3nn(Cc4ccccc4)c4ccc(C(F)(F)F)cc34)C2)CC1` (centres unmarked) [Example 97, 4-{3-[2-(1-Benzyl-5-trifluoromethyl-1H-indazol-3-ylamino)-acetylamino]-azetidin-1-yl}-cyclohexane carboxylic acid ethyl ester], the concentration for half-maximal inhibition (IC50) came out at 170 nM.

Consider `CC(C)C1CCC(N2CC(NC(=O)CNc3nn(Cc4ccccc4)c4ccc(C(F)(F)F)cc34)C2)CC1` (centres unmarked) [Example 98, 2-(1-Benzyl-5-trifluoromethyl-1H-indazol-3-ylamino)-N-[1-(4-isopropyl-cyclohexyl)-azetidin-3-yl]-acetamide], for which the IC50 was 5900 nM.

Regarding `CCOC(=O)C1CCC(N2CC(NC(=O)CNc3nn(S(C)(=O)=O)c4ccc(C(F)(F)F)cc34)C2)CC1` (centres unmarked) [Example 99, 4-{3-[2-(1-Methanesulfonyl-5-trifluoromethyl-1H-indazol-3-ylamino)-acetylamino]-azetidin-1-yl}-cyclohexane carboxylic acid ethyl ester], the IC50 is 230 nM. The same measure for `COc1ccc(C2CCC(N3CC(NC(=O)CNc4nn(S(C)(=O)=O)c5ccc(C(F)(F)F)cc45)C3)CC2)cn1` (centres unmarked) [Example 100, 2-(1-Methanesulfonyl-5-trifluoromethyl-1H-indazol-3-ylamino)-N-{1-[4-(6-methoxy-pyridin-3-yl)-cyclohexyl]-azetidin-3-yl}-acetamide]: 3700 nM; for `Cc1ccc(C2(O)CCC(N3CC(NC(=O)CNc4nn(C)c5ccc(OCC(F)(F)F)cc45)C3)CC2)cn1` (centres unmarked) [Example 101]: 1100 nM. For `COc1ccc(C2(O)CCC(N3CC(NC(=O)CNc4nn(C)c5ccc(C(F)(OC)C(F)(F)F)cc45)C3)CC2)cn1` (centres unmarked) [Example 102, N-{1-[4-Hydroxy-4-(6-methoxy-pyridin-3-yl)-cyclohexyl]-azetidin-3-yl}-2-[1-methyl-5-(1,2,2,2-tetrafluoro-1-methoxy-ethyl)-1H-indazol-3-ylamino]-acetamide], the IC50 was 33 nM. The result for `COC(F)(c1ccc2c(c1)c(NCC(=O)NC1CN(C3CCC(O)(c4ccc(C)nc4)CC3)C1)nn2C)C(F)(F)F` (centres unmarked) [Example 103, N-{1-[4-Hydroxy-4-(6-methyl-pyridin-3-yl)-cyclohexyl]-azetidin-3-yl}-2-[1-methyl-5-(1,2,2,2-tetrafluoro-1-methoxy-ethyl)-1H-indazol-3-ylamino]-acetamide] reads 22 nM; that for `O=C(CNc1n[nH]c2ccc(C(F)(F)F)nc12)NC1CN([C@H]2CC[C@@](O)(c3cncs3)CC2)C1` [Example 104, N-(1-((1R,4R)-4-hydroxy-4-(thiazol-5-yl)cyclohexyl)azetidin-3-yl)-2-((5-(trifluoromethyl)-1H-pyrazolo[4,3-b]pyridin-3-yl)amino)acetamide], 230 nM.
